# Laboratory results: article PMC7979765, “trans-Translation inhibitors bind to a novel site on the ribosome and clear Neisseria gonorrhoeae in vivo” (Nature Communications, 2021)
# “And” between values parts separate entries of the source, which are not always exact repeats. Equal values may be shown once. Read-outs that look alike come from different tables or passages of the source.
# Assays:
# CYP2C8 = target: T1, CYP2C8 (Homo sapiens, UniProt P10632); test: Cyp inhibition assay 4879; assay type: in vitro ADME; conditions: catalog reference 4879, read-out: pIC50 (µM) reported (converted)
# T1 construct: Eurofins Discovery Services (contract assay) 4879
# Method: (§1) Several in vitro selectivity assays were performed at Eurofins Discovery Services using established methods and controls that behaved as expected (Supplementary Tables 5 and 6). […] For receptor panel profiling, MBX-4132 was evaluated at 10 μM and activity of >50% (agonist or antagonist; note that negative % inhibition indicates agonism) was scored as active.
# [1] = Serum protein binding, human; assay type: in vitro ADME; conditions: read-out: Serum binding (% bound) Human (converted)
# Method: Serum protein binding was determined using an equilibrium dialysis method as described. The amount of compound in each chamber (buffer and serum) was measured using methods for reverse-phase liquid chromatography/mass spectroscopy methods that were customized for each compound.
# [2] = Murine tolerability studies; assay type: in vivo; conditions: for adverse effects (in words): mice
# Method: Single dose tolerability studies — Female CD-1 mice were fasted for 2 h prior, and 4 h after dosing. […] 4–6 weeks-old CD-1 female mice were received from Charles River laboratories and acclimated for at least 5 days prior to the start of the study. Apart from specific instances of fasting described in the experimental, the mice had free access to food and water. The animals were housed 3–6 per cage in a temperature and humidity-controlled room with a 12 h light cycle. All procedures described are in compliance with the Animal Welfare Act, the Guide for the Care and Use of Laboratory Animals, and the Office of Laboratory Animal Welfare. These studies conform to the NeoSome IACUC policies and Operational Guidelines as approved by the IACUC membership, NeoSome Safety Officers, or Attending Veterinarian. All testing was performed at Neosome LLC.
# Multidose tolerability studies — In preparation for this study, an abbreviated version of the above murine PK study using the same formulation (A) examined fasted mice vs. fed mice was performed, with plasma samples taken at 1 and 4 h post dosing and analyses as described in the PK section.
# Female CD-1 mice were given free access to food and water. […] Any abnormal observations (behavior, agility, weight, coat condition and appearance, color of urine, quality of feces, etc.) were noted.
# Adrenergic α1A = target: T2, Adrenergic α1A (Homo sapiens, UniProt P35348); test: Receptor Profiling 203110; assay type: binding
# T2 construct: purchased Eurofins Discovery Services (Panlabs safety panel)
# Method: as §1
# Cycloogenase COX-2 = target: T3, Cycloogenase COX-2 (Homo sapiens, UniProt P35354); test: Receptor Profiling 118030; assay type: biochemical
# T3 construct: Eurofins Discovery Services (contract assay) 118030
# Method: as §1
# [3] = target: T4, Transporter, Dopamine (DAT) (Homo sapiens, UniProt Q01959); test: Receptor Profiling 220320; assay type: binding
# T4 construct: Eurofins Discovery Services (contract assay) 220320
# Method: as §1
# Adrenergic β2 = target: T5, Adrenergic β2 (Homo sapiens, UniProt P07550); test: Receptor Profiling 204110; assay type: binding
# T5 construct: purchased Eurofins Discovery Services (Panlabs safety panel)
# Method: as §1
# [4] = target: T6, Serotonin (5-hydroxytryptamine) 5-HT1B (Homo sapiens, UniProt P28222); test: Receptor Profiling 271230; assay type: binding
# T6 construct: purchased Eurofins Discovery Services (Panlabs safety panel)
# Method: as §1
# [5] = Multiplexed cytotoxicity assay (nuclei, ROS, TMRE); assay type: cell-based, human; conditions: human, human primary hepatocytes; for fold induction at 24 h, 1 μM: 1.00E+00 μM; for fold induction at 24 h, 10 μM: 1.00E+01 μM; for fold induction at 24 h, 100 μM: 1.00E+02 μM; for fold induction at 24 h, 0.1 μM: 1.00E-01 μM; for fold induction at 24 h, 0.0101 μM: 1.01E-02 μM; for fold induction at 24 h, 31.6 μM: 3.16E+01 μM; for fold induction at 24 h, 3.17 μM: 3.17E+00 μM; for fold induction at 24 h, 0.317 μM: 3.17E-01 μM; for fold induction at 24 h, 0.0318 μM: 3.18E-02 μM; for fold induction at 24 h, 0.00318 μM: 3.18E-03 μM
# Method: (§2) Multiplexed cytotoxicity assay — Human primary hepatocytes were grown on collagen I coated optical plates, cultured in hepatocytes culture media in a humidified 5% CO2 atmosphere at 37 °C. Cells were incubated in the presence of MBX-4132 at 10 concentrations starting a 100 µM and serially diluted 3.16-fold for 24 h at 37 °C, incubated for 30 min with multiplexed fluorescent dyes (Hoescht, 6-carboxy-2’,7’-dichlorodihydrofluorescein diazetat, and TMRE) and imaged to allow visualization of nuclei, reactive oxygen species generation, and mitochondrial oxidation. A >3.5-fold induction of ROS was considered consistent with formation of ROS and a >2-fold change in TMRE signal indicated an increase or decrease in mitochondrial membrane potential.
# [6] = test system: Human primary hepatocytes; test: Multiplexed cytotoxicity assay (nuclei, ROS, TMRE); assay type: cell-based
# Method: as §2
# Moraxella catarrhalis = test: MIC, microbroth dilution; assay type: cell-based
# CYP2C9 = target: T7, CYP2C9 (Homo sapiens, UniProt P11712); test: Cyp inhibition assay 4878; assay type: in vitro ADME; conditions: catalog reference 4878
# T7 construct: Eurofins Discovery Services (contract assay) 4878
# Method: as §1
# Dopamine D2s = target: T8, Dopamine D2s (Homo sapiens, UniProt P14416); test: Receptor Profiling 219700; assay type: binding
# T8 construct: purchased Eurofins Discovery Services (Panlabs safety panel)
# Method: as §1
# Cannabinoid CB1 = target: T9, Cannabinoid CB1 (Homo sapiens, UniProt P21554); test: Receptor Profiling 217050; assay type: binding
# T9 construct: purchased Eurofins Discovery Services (Panlabs safety panel)
# Method: as §1
# Adrenergic α2A = target: T10, Adrenergic α2A (Homo sapiens, UniProt P08913); test: Receptor Profiling 203630; assay type: binding
# T10 construct: purchased Eurofins Discovery Services (Panlabs safety panel)
# Method: as §1
# [7] = read-out: Mean MMP inhibition (fold induction)
# [8] = read-out: Mean ROS (fold induction)
# T10 sequence (P08913 whole entry): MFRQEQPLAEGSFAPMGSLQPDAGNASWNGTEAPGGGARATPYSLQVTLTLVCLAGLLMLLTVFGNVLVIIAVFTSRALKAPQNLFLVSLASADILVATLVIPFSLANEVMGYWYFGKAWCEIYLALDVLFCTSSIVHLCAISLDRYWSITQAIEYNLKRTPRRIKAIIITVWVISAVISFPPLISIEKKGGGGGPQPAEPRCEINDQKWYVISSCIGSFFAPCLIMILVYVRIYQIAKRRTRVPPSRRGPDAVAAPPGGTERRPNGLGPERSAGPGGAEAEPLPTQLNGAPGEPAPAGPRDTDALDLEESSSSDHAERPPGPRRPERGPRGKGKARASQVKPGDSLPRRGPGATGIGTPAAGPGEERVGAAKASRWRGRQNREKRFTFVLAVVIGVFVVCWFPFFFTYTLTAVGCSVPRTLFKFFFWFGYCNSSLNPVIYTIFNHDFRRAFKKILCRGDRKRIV
# T5 sequence (P07550 whole entry): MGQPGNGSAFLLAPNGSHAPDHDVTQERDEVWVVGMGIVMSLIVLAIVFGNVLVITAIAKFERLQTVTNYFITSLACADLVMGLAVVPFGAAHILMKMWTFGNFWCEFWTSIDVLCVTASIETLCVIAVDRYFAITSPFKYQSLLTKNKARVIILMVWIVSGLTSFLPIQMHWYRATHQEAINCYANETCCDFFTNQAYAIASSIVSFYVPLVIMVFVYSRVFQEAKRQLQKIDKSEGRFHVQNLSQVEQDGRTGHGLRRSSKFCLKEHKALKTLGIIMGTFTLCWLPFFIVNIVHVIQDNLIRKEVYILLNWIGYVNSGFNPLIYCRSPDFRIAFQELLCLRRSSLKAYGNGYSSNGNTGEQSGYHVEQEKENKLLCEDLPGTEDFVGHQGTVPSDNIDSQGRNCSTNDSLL
# T3 sequence (P35354 18-604): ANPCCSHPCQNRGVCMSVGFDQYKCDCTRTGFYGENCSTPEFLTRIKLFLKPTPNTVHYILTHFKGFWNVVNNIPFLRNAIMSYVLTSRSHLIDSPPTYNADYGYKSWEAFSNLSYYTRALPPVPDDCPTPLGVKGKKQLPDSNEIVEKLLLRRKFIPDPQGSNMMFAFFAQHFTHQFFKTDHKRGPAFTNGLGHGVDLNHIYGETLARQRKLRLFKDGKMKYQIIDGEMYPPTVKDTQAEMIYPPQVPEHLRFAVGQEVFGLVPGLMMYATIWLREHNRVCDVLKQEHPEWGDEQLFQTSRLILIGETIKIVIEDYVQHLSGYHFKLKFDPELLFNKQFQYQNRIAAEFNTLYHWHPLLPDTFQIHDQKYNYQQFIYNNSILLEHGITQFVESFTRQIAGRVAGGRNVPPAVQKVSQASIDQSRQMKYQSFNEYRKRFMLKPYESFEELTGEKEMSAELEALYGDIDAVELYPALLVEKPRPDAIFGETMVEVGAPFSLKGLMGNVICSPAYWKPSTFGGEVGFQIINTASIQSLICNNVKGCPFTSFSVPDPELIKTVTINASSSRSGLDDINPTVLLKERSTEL
# T1 sequence (P10632 whole entry): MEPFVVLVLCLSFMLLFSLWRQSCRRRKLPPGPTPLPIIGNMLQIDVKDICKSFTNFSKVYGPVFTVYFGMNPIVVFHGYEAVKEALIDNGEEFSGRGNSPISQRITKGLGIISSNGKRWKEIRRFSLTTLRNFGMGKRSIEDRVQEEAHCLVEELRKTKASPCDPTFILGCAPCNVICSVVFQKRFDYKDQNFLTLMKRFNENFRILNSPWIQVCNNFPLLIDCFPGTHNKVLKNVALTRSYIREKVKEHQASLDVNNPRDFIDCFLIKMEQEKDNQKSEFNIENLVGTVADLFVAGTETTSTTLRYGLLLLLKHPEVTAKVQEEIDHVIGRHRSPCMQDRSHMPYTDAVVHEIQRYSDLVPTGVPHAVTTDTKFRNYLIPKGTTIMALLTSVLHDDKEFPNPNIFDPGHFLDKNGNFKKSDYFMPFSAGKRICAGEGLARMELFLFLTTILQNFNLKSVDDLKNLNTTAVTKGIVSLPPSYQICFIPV
# T2 sequence (P35348 whole entry): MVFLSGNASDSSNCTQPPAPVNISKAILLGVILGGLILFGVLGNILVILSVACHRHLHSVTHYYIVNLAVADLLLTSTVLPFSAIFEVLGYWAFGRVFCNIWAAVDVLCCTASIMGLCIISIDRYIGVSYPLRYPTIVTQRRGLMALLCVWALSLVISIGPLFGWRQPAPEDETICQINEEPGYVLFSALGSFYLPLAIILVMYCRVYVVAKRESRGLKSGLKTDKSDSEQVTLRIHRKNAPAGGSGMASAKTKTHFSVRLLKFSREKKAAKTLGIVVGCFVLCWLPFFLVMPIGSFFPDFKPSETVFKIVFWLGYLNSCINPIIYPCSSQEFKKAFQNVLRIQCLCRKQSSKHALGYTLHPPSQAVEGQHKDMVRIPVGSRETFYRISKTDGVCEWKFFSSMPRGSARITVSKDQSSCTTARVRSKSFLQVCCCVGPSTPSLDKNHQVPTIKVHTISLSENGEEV
# T6 sequence (P28222 whole entry): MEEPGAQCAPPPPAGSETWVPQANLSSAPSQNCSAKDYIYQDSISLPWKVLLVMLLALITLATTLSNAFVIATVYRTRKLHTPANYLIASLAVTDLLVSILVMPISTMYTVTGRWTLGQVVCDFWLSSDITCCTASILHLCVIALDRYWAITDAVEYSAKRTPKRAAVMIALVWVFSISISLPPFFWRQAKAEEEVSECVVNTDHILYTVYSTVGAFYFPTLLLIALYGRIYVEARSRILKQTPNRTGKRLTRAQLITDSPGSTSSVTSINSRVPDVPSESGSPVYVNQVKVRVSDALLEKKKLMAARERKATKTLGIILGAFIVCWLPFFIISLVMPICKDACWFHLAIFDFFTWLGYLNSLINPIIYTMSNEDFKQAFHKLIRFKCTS
# T9 sequence (P21554 whole entry): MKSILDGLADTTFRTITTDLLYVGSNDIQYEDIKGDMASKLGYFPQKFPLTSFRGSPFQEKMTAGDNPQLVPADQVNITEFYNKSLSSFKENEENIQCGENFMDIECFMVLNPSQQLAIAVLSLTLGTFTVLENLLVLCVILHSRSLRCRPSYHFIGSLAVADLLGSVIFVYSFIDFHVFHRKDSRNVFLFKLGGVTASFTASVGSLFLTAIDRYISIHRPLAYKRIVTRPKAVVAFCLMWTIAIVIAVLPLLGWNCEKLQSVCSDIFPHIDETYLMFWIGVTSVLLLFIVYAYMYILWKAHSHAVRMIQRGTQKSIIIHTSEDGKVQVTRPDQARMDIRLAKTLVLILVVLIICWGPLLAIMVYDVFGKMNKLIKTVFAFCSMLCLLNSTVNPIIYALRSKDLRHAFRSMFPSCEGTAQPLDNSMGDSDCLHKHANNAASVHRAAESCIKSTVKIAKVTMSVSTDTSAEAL
# T8 sequence (P14416 1-414 isoform P14416-2): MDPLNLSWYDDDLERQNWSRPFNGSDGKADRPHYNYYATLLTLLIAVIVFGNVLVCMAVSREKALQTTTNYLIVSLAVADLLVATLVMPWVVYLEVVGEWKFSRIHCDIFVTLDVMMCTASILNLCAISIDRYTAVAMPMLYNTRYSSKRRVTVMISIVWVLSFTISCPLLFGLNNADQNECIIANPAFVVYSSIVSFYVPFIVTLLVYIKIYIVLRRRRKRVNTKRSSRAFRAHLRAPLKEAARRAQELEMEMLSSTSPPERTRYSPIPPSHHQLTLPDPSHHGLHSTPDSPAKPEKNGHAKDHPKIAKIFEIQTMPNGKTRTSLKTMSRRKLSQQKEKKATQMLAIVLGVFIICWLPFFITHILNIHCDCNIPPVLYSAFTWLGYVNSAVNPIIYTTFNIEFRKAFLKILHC
# T4 sequence (Q01959 whole entry): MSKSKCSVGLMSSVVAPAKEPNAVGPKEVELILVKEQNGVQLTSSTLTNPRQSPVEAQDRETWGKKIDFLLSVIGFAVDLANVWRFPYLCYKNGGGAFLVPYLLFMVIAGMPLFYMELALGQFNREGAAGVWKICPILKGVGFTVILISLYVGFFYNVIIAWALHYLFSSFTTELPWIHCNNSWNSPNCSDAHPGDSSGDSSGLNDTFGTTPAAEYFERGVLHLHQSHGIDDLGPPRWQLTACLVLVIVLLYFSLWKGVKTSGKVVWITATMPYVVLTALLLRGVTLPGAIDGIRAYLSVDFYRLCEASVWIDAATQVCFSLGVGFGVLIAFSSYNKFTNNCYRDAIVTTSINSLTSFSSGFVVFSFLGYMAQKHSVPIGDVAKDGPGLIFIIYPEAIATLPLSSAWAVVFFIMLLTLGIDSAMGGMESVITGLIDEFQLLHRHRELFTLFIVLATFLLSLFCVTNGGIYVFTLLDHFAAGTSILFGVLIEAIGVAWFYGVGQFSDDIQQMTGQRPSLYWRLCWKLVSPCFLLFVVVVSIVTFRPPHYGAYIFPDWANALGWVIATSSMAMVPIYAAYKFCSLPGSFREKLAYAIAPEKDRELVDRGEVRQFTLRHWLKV
# T7 sequence (P11712 whole entry): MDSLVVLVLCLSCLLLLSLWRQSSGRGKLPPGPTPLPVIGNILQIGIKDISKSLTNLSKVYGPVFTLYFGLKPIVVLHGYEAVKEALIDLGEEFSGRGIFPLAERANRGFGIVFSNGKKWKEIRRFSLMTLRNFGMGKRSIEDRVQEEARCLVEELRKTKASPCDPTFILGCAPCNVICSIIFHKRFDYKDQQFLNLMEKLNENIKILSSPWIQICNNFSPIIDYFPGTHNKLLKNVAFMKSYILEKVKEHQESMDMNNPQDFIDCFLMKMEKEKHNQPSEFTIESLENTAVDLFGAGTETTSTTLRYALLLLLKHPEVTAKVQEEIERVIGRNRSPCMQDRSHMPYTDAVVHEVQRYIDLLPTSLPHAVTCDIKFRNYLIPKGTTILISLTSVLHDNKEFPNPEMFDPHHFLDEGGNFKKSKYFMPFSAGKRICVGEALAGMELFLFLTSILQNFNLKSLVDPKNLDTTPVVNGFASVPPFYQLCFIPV
compound,measurement,setting,value
O=C(Nc1nnc(-c2ccc(F)cc2)o1)N1CCc2ccccc2C1 [MBX-4132],IC50,CYP2C8,> 100 µM
same,fraction unbound,"[1]; Average Value, Eurofins",0.009
same,fraction unbound,"[1]; Replicate 1/2, Eurofins",0.017 and 0.002
same,fraction unbound,"[1]; Reported value, Eurofins",0.01
same,"abnormal observations, multidose tolerability","[2]; female CD-1 mice, 10 ml/kg of 1.0 mg/ml suspension QD or BID for 7 d, observed 10 d",No abnormal observations
same,"abnormal observations, single dose tolerability","[2]; female CD-1 mice, oral gavage 10 ml/kg of 1.0, 2.5 or 10.0 mg/ml suspension, 24 h",No abnormal observations
same,adverse effects (in words),"[2]; repeat dosing 10 mg/kg BID, 7 d",no obvious adverse effects
same,adverse effects (in words),[2]; single dose of 100 mg/kg,no obvious adverse effects
same,inhibition at 10 µM,Adrenergic α1A,6%
same,inhibition at 10 µM,Cycloogenase COX-2,10%
same,inhibition at 10 µM,[3],3%
same,inhibition at 10 µM,Adrenergic β2,35%
same,inhibition at 10 µM,[4],21%
same,"fold induction at 24 h, 1 μM",[5]; [7],0.9
same,"fold induction at 24 h, 1 μM",[5]; [8],1.2
same,"fold induction at 24 h, 10 μM",[5]; [7],1.1
same,"fold induction at 24 h, 10 μM",[5]; [8],1.9
same,"fold induction at 24 h, 100 μM",[5]; [7],0.8
same,"fold induction at 24 h, 100 μM",[5]; [8],9.2
same,"fold induction at 24 h, 0.1 μM",[5]; [7],1.2
same,"fold induction at 24 h, 0.1 μM",[5]; [8],1.4
same,"fold induction at 24 h, 0.0101 μM",[5]; [7],1
same,"fold induction at 24 h, 0.0101 μM",[5]; [8],1.4
same,"fold induction at 24 h, 31.6 μM",[5]; [7],1.1
same,"fold induction at 24 h, 31.6 μM",[5]; [8],1.3
same,"fold induction at 24 h, 3.17 μM",[5]; [7],1
same,"fold induction at 24 h, 3.17 μM",[5]; [8],1.1
same,"fold induction at 24 h, 0.317 μM",[5]; [7],0.9
same,"fold induction at 24 h, 0.317 μM",[5]; [8],1.2
same,"fold induction at 24 h, 0.0318 μM",[5]; [7],0.9
same,"fold induction at 24 h, 0.0318 μM",[5]; [8],0.9
same,"fold induction at 24 h, 0.00318 μM",[5]; [7],1
same,"fold induction at 24 h, 0.00318 μM",[5]; [8],3.1
same,Attached live cells (%),"[6]; 1.00E+00 μM, 24 h",106.3%
same,Attached live cells (%),"[6]; 1.00E+00 μM, replicates",108.6% and 104.0%
same,Attached live cells (%),"[6]; 1.00E+01 μM, 24 h",97.7%
same,Attached live cells (%),"[6]; 1.00E+01 μM, replicates",104.3% and 91.1%
same,Attached live cells (%),"[6]; 1.00E+02 μM, 24 h",69.6%
same,Attached live cells (%),"[6]; 1.00E+02 μM, replicates",78.3% and 60.9%
same,Attached live cells (%),"[6]; 1.00E-01 μM, 24 h",96.7%
same,Attached live cells (%),"[6]; 1.00E-01 μM, replicates",101.6% and 91.8%
same,Attached live cells (%),"[6]; 1.01E-02 μM, 24 h",109.5%
same,Attached live cells (%),"[6]; 1.01E-02 μM, replicates",115.4% and 103.6%
same,Attached live cells (%),"[6]; 3.16E+01 μM, 24 h",89.5%
same,Attached live cells (%),"[6]; 3.16E+01 μM, replicates",92.0% and 87.0%
same,Attached live cells (%),"[6]; 3.17E+00 μM, 24 h",99.6%
same,Attached live cells (%),"[6]; 3.17E+00 μM, replicates",103.9% and 95.3%
same,Attached live cells (%),"[6]; 3.17E-01 μM, 24 h",114.0%
same,Attached live cells (%),"[6]; 3.17E-01 μM, replicates",124.2% and 103.8%
same,Attached live cells (%),"[6]; 3.18E-02 μM, 24 h",97.5%
same,Attached live cells (%),"[6]; 3.18E-02 μM, replicates",106.1% and 88.9%
same,Attached live cells (%),"[6]; 3.18E-03 μM, 24 h",105.6%
same,Attached live cells (%),"[6]; 3.18E-03 μM, replicates",110.9% and 100.3%
same,effect on mitochondrial membrane polarity (in words),"[6]; high concentrations, human hepatocytes",no effect
same,MIC,"Moraxella catarrhalis; Moraxella catarrhalis 8716, replicates",0.0332 µg/mL
same,MIC,"Moraxella catarrhalis; Moraxella catarrhalis, Moraxella catarrhalis 8716, replicates, read-out: MIC",0.0332 µg/mL
same,MIC,"Moraxella catarrhalis; Moraxella catarrhalis, strain 8716, read-out: MIC",0.04 µg/mL
same,pIC50 (µM) reported,CYP2C9,No activity
same,inhibition at 10 µM,Dopamine D2s,21%
same,inhibition at 10 µM,Cannabinoid CB1,-4%
same,inhibition at 10 µM,Adrenergic α2A,35%
